Results as given in patent publication US10196362B2, “Carbamate compound and use thereof” (SUMITOMO CHEMICAL COMPANY, LIMITED, priority 2015, dated 2019).

Tests used:
[1] = system: wheat speckled leaf blotch fungus (Septoria tritici); test: Test Example 5: wheat speckled leaf blotch, foliar spray pot test; assay type: in vivo; settings: wheat (Apogee), 500 ppm foliar spray, Formulation Example 6, inoculated after 4 days
[2] = system: soybean rust (Phakopsora pachyrhizi); test: Test Example 7: soybean rust, foliar spray pot test; assay type: in vivo; settings: soybean (Kurosengoku), 200 ppm foliar spray, Formulation Example 6, inoculated after 4 days

Row | Compound | area of the lesion on treated plant relative to untreated plant [1] | area of the lesion on treated plant relative to untreated plant [2]
1 | COC(=O)N(OC)c1ccccc1COc1ccc(-n2nc(C)cc2C)cc1C [methyl N-(2-{[2-methyl-4-(3,5-dimethyl-1H-pyrazol-1-yl)phenoxy]methyl}phenyl)-N-methoxy carbamate] | ≥ 70% | 
2 | COC(=O)Nc1ccccc1COc1ccc(-n2cccn2)cc1 [methyl N-(2-{[4-(1H-pyrazol-1-yl)phenoxy)methyl}phenyl)carbamate] |  | ≥ 70%
